Source: patent publication US11191760B2, “Compositions and methods for treating Helicobacter pylori infection” (priority 2016, dated 2021)

Tests used:
Assay type in all cases: cell-based
AGS cells [1] = test: VacA-disrupted autophagy in AGS cells (LC3-II immunoblot, LC3 puncta); conditions: for VacA-disrupted autophagy (LC3-II levels): FIG. 13
Description: AGS cells incubated with VacA+ or VacA− CCMS for 3 to 4 hrs were then treated with 20 μM ML-SA1 or DMSO (vehicle) for an additional 3 hrs. Cell lysates were prepared and probed for the autophagy marker LC3-II and actin (loading control) (4A, left). Densitometry analysis (LC3-II/actin ratio) of 6 experiments is included on the right. […] Cells treated as indicated above were fixed and stained for LC3-11 (marker of autophagosomes) and cell nuclei (using DAPI). […] One representative image of 7 experiments is shown.
To validate the results obtained with ML-SA1 and confirm that VacA impairs TRPML1 activity, a new recently described TRPML1 agonist, MK6-83, was also evaluated in its ability to restore VacA-disrupted autophagy. To this end, AGS cells incubated with VacA+ or VacA− CCMS for 4 hours were treated with 20 μM ML-SA1, 10 μM MK6-83 or DMSO (vehicle) for additional 3 hour period. Cell lysates were prepared and assessed for LC3-II and actin as loading control. […] This example provides evidence that various TRPML1 agonists of different structures work in the same way by targeting TRPML1 to restore VacA-disrupted autophagy.

human gastric organoids = test: VacA-induced large vacuoles and disrupted autophagy in human gastric organoids; conditions: 16 h VacA+ culture supernatant
Description: (11A) 3-dimensional human gastric organoids were treated 16 h with VacA− or VacA+ culture supernatant, then 5 h with vehicle (DMSO) or ML-SA1. One representative Western blot is shown and the corresponding quantification of the rescue in LC3-II by treatment with ML-SA1 from organoids derived from 5 different patients. (B) Representative confocal images taken from human gastric organoid monolayers treated for 16 h with VacA− or VacA+ culture supernatant, then 3 h with vehicle (DMSO) or ML-SA1. VacA-induced large vacuoles were visualized by Lamp1, autophagy by LC3 and nuclei by DAPI. Note large Lamp1 positive rings and LC3 puncta (arrows) in VacA+ DMSO that were rescued in VacA+ ML-SA1.
Organoids are 3-dimensional primary cell cultures that recapitulate the normal stomach physiology. These cultures are derived from stem cells located in the gastric gland that differentiate into complex structures containing the different cell types found in the stomach epithelium. To ensure findings from the cancerous gastric cell line (AGS) held true in a physiological model, organoids were derived from multiple different patients and treated with VacA.

AGS cells [2] = test: VacA-induced missorting of cathepsin D in AGS cells (Lamp1/cathepsin D staining); conditions: 20 μM for 4 hrs after overnight VacA+ CCMS
Description: VacA− DMSO treated (control) cells display lysosomes filled with cathepsin D (same puncta obtained by Lamp1 and cathepsin D staining in the top 2 panels) whereas the big vacuoles generated by VacA+ incubation lack cathepsin D (middle panels). […] A higher magnification of a merged Lamp1/cathepsin D image is included on the right. One representative image of 6 experiments is shown.
(§1) ML-SA1 administration to VacA^+ treated AGS cells recovered the delivery of cathepsin D to intracellular vacuoles (FIG. 5) and increased cathepsin D cellular levels as detected by immunoblotting (FIG. 6). Importantly, ML-SA1-treated cells also regained the ability to degrade the chromogenic substrate, DQ-BSA (FIG. 7). Altogether, these findings indicate that activation of the TRPML1 channel reverts formation of the VacA-induced non-degradative vacuole.

[3] = system: wild-type (VacA+) H. pylori; test: Intracellular bacteria survival in infected AGS cells (gentamicin, CFU)
AGS cells [4] = test: Vacuolation and cathepsin D missorting in AGS cells infected with wild-type (VacA+) H. pylori; conditions: treated for 4 hrs
Description: A merged image is shown on the left, and the individual stainings corresponding to a higher magnification of the selected areas are included on the right. In the AGS cells infected with VacA− H. pylori mutant, the cathepsin D-filled lysosomes efficiently killed the intracellular bacteria (visualized by DAPI).
To this end, AGS cells infected with wild-type (VacA^+) or VacA^− mutant H. pylori were incubated with the cell-impermeant antibiotic gentamicin to kill extracellular bacteria. Intracellular bacteria were then retrieved and quantified. […] The big vacuoles, depleted of cathepsin D and filled with bacteria observed in the VacA^+ H. pylori infected cells (FIG. 9, inset), were reduced in size and filled with the hydrolytic enzyme after ML-SA1 treatment (FIG. 9, inset). Thus, the reduction in intracellular survival was a consequence of the destruction of the […] H. pylori protective niche (FIG. 8,9).

AGS cells [5] = test: Lysosomal degradative function in VacA+ CCMS treated AGS cells (red DQ-BSA); conditions: 20 μM for 3 hrs after overnight VacA+ CCMS, then red DQ-BSA 4 hrs
Description: AGS cells were incubated overnight with VacA− or VacA+ CCMS and treated with 20 μM ML-SA1 or DMSO (vehicle) for an additional 3 hrs period prior to being loaded with red DQ-BSA for an additional 4 hrs. Cells were then fixed and stained with DAPI. Red DQ-BSA is a chromogenic substrate taken up by the cells by endocytosis. The dye generates a fluorescence signal once hydrolyzed in lysosomes. VacA− treated control cells efficiently degrade the substrate resulting in the detection of the fluorescence signal (lysosomal-like white puncta in 7A) whereas in VacA+ treated cells minimal to none fluorescence is detected (7B). […] The experiment was repeated 4 times with similar results.
as §1

AGS cells [6] = test: Cathepsin D cellular levels in VacA+ CCMS treated AGS cells (Western blotting); conditions: 20 μM for 4 hrs after overnight VacA+ CCMS
Description: AGS cells were incubated overnight with VacA− or VacA+ CCMS and treated with 20 μM ML-SA1 or DMSO (vehicle) for an additional 4 hrs period prior to lysate preparation. Cathepsin D and actin (loading control) levels were analyzed by Western blotting. […] One representative blot of 5 is shown (top panel). Densitometry analysis of cathepsin D levels (cathepsin D/actin ratio), normalized to the VacA− treated control is shown (bottom panel).
as §1

AGS cells [7] = test: VacA-induced vacuolation in AGS cells (Lamp1 staining); conditions: 20 μM for 3 hrs after 3 to 4 hrs VacA+ CCMS
Description: AGS cells were incubated with CCMS from wild-type (VacA+) or mutant (VacA−) 60190 H. pylori for 3 to 4 hrs to induce vacuole formation. Cells were then treated with 20 μM of the TRPML1 agonist ML-SA1 or DMSO (vehicle) for an additional 3 hrs period prior to fixation and staining for Lamp1 and cell nuclei. […] Lamp1 staining in these TRPML1 treated cells was indistinguishable from VacA− CCMS control AGS cells. The experiment was repeated 8 times with similar results. One representative experiment is shown.
ML-SA1-treated VacA^+ AGS cells were indistinguishable from VacA^− control cells, displaying Lamp1 staining that resembled normal lysosome size and distribution.

SMILES | VacA-disrupted autophagy (LC3-II levels) (AGS cells [1]; 10 μM for 3 hour after 4 hours VacA+ CCMS, AGS cells) | VacA-induced large intracellular vacuoles (Lamp1) (human gastric organoids; then 3 h compound, human gastric organoid monolayers) | disrupted autophagy (LC3) (human gastric organoids; then 5 h (3-dimensional organoids, LC3-II blot) or 3 h (monolayers) compound) | cathepsin D sorting to lysosomes (AGS cells [2]) | intracellular survival of wild-type (VacA+) H. pylori (CFU) ([3]; 8 hrs infection, 20 μM for the last 3 hrs) | intracellular survival of wild-type (VacA+) H. pylori (CFU) ([3]; 24 hrs infection, 20 μM for the last 4 hrs) | VacA-disrupted autophagy (LC3-II levels) (AGS cells [1]; 20 μM for 3 hour after 4 hours VacA+ CCMS, AGS cells) | autophagy marker LC3-II (LC3-II/actin ratio) (AGS cells [1]; 20 μM for 3 hrs after 3 to 4 hrs VacA+ CCMS, AGS cell lysates, FIG. 4A) | accumulation of dysfunctional autophagosomes (LC3 puncta) (AGS cells [1]; 20 μM for 3 hrs after VacA+ CCMS, AGS cells, staining, FIG. 4B) | size of the vacuoles in VacA+ H. pylori infected cells (AGS cells [4]; Lamp1 staining) | cathepsin D in the vacuoles of VacA+ H. pylori infected cells (AGS cells [4]; cathepsin D staining) | lysosomal degradative function (degradation of DQ-BSA) (AGS cells [5]) | cathepsin D cellular levels (cathepsin D/actin ratio) (AGS cells [6]) | VacA-induced vacuolation (Lamp1 staining) (AGS cells [7])
Cc1ccc(S(=O)(=O)Nc2ccccc2N2CCCCC2)s1 [MK6-83] | restored the VacA-disrupted autophagy |  |  |  |  |  |  |  |  |  |  |  |  | 
CC1CC(C)(C)N(C(=O)CN2C(=O)c3ccccc3C2=O)c2ccccc21 (centres unmarked) [ML-SA1] |  | large vacuoles were reverted | autophagy was restored | restores cathepsin D sorting to lysosomes | reverted the enhanced intracellular survival | reverted the enhanced intracellular survival | restored the VacA-disrupted autophagy | autophagy was restored | reversed the accumulation of dysfunctional autophagosomes | causes a reduction in the size of the vacuoles | now contain the lysosomal hydrolase cathepsin D | restores the degradative capacity | restored cathepsin D levels | reversed the vacuolation
